Measured values taken from patent publication US6399083B1, “Cosmetic compositions containing chick pea extract and retinoids” (Unilever Home & Personal Care USA, division of Conopco, Inc., priority 1999, dated 2002).

Tested on: CRABP-2
Experiment: CRABP-2 protein expression in fibroblasts by Western immuno-blotting and densitometric scanning
Type: cell-based, Human
Details: for As % of control: control as 100%
Description: Dried chick pea was purchased from local markets and powdered in a dry grinder. The alcoholic extract of chick pea was prepared by stirring 1 gram of the dry chick pea powder in 10 ml of ethanol for 4 to 24 hrs at room temperature. The extract was clarified by filtration and centrifugation, to obtain a 10% extract of chick pea in ethanol.
Human adult fibroblasts obtained from sun-protected inner arm of […] were used in this. Cells were grown in 1:1 DMEM/Hams F12 media containing 10% FBS, maintained at 37 C. in a 5% CO2 atmosphere under normal atmospheric oxygen tension. Third passage adult fibroblasts were grown in DMEM media with 10% FBS in 12-well plates at a seeding density of 40,000 cells/ml/well. The cells at 80% confluence were rinsed in serum free and phenol red free (PRF) DMEM media twice. Pre-treatment with chick pea extract for 4 hours was conducted and then dosed with retinoids and was incubated for 48 hours. After the incubation, the wells were washed twice with 1×PBS and the cell monolayer was harvested in 100 μI cell lysis buffer (contains 1×PBS, 1% TritonX, 0.5% sodium deoxycholate, 0.1% SDS containing protease inhibitor (10 mg/ml PMSF in isopropanol, 10 μl/ml)). The suspension was spun at 14000 rpm for 10 minutes, the supernatant collected and an aliquot of this supernatant was used for protein quantification. Protein concentration was determined using Pierce protein kit. The remainder of 100 μl supernatant (cell lysate) was denatured in a mixture of 40 μl sample buffer (NOVEX) and 0.5% Beta mercaptoethanol (BME) and by boiling the sample for 5 minutes. Equal amount of protein was then loaded onto 16% Tris-glycine gels for protein analysis by SDS page and Western Immuno-blotting for CRABP-2 protein expression.
To measure the levels of CRABP-2 in the fibroblasts prepared as described above, the cell supernatant was re-suspended in 4×sample buffer and 0.5% BME, boiled for 5 minutes and used for western blotting. Equal amounts of protein were loaded onto 16% Tris-glycine gels for CRABP-2 protein analysis by SDS page and Western Immuno-blotting. The gels were transferred to nitrocellulose blots and Western Blotting was carried out using monoclonal antibodies to CRABP-2 according to standard procedures. The CRABP-2 protein band was visualized in the Western Blots using the chemiluminescence system obtained from Santa Cruz Biotechnology (Santa Cruz, Calif.). The bands in the film were quantitated by densitometric scanning, the data from triplicate samples were calculated as % of control and expressed in the following tables as % increase over control (with control as 100%) +/−SD of triplicates.

[1] = Example 1: 100 nM retinoids and 0.1 μl of a 10% chick pea extract, 4 h extract pre-treatment, 48 h incubation, +/- SD of triplicates
[2] = Example 1: 100 nM retinoids and 0.1 μl of a 10% chick pea extract, +/- SD of triplicates
[3] = Example 1: 100 nM retinoids and 0.1 μl of a 10% chick pea extract
[4] = Example 3: 500 nM retinoids and 0.1 μl of a 10% chick pea extract, +/- SD of triplicates
[5] = Example 3: 500 nM retinoids and 0.1 μl of a 10% chick pea extract
[6] = second table headed Example 3: 500 nM retinoids and 0.1 μl of a 10% chick pea extract, +/- SD of triplicates
[7] = second table headed Example 3: 500 nM retinoids and 0.1 μl of a 10% chick pea extract

SMILES | CRABP-2 levels [1] | CRABP-2 levels [2] | As % of control [3] | As % of control [2] | CRABP-2 levels [4] | As % of control [5] | CRABP-2 levels [6] | As % of control [7]
CCCCCCCCCCCCCCCC(=O)OC/C=C(C)/C=C/C=C(C)/C=C/C1=C(C)CCCC1(C)C [Retinyl Palmitate, retinyl palmitate] | 1.84 +/− 0.16 | 1.84 +/− 0.16 | 262 +/− 24 % of control | 262 +/− 24 % of control | 0.94 +/− 0.31 | 135 +/− 45 % of control | 0.94 +/− 0.31 | 135 +/− 45 % of control
CC(=O)OC/C=C(C)/C=C/C=C(C)/C=C/C1=C(C)CCCC1(C)C [Retinyl acetate, retinyl acetate] | 1.44 +/− 0.26 | 1.44 +/− 0.26 | 206 +/− 37 % of control | 206 +/− 37 % of control | 1.65 +/− 0.49 | 235 +/− 70 % of control | 1.65 +/− 0.49 | 235 +/− 70 % of control
CC1=C(/C=C/C(C)=C/C=C/C(C)=C/CO)C(C)(C)CCC1 [Retinol] | 2.02 +/− 0.23 | 2.02 +/− 0.23 | 289 +/− 34 % of control | 289 +/− 34 % of control | 0.72 +/− 0.04 | 102 +/− 6 % of control | 0.72 +/− 0.04 | 102 +/− 6 % of control
CCCCC/C=C\C/C=C\CCCCCCCC(=O)OC/C=C(C)/C=C/C=C(C)/C=C/C1=C(C)CCCC1(C)C [Retinyl linoleate, retinyl linoleate] | 2.06 +/− 0.09 | 2.06 +/− 0.09 | 294 +/− 12 % of control | 294 +/− 12 % of control | 0.81 +/− 0.16 | 115 +/− 23 % of control | 0.81 +/− 0.16 | 115 +/− 23 % of control
